Reference: patent publication US12187701B2, “Taire family kinase inhibitors and uses thereof” (Dana-Farber Cancer Institute, Inc., priority 2018, dated 2025)

What was measured:
Cdk14 [1] = target: T1, Cdk14 (Homo sapiens (Human), UniProt O94921); test: Cellular pull down with biotinylated probe, CDK14; type: cell-based; conditions: HEK293 cells overexpressing Cdk14-flag
Procedure: HEK293 cells overexpressing a Cdk14-flag fusion protein were treated with candidate compounds for 4 hours. Cells were washed with PBS, harvested and lysed in Pierce IP buffer with protease and phosphatase inhibitors (Roche). […] To enhance pulldown, lysates were incubated at room temperature for an additional 2 hours. […] Beads were then washed 3 times with Pierce IP buffer, then boiled at 95° C. for 5 minutes in 2× LDS+10% β-mercaptoethanol. Proteins of interest engaged by the biotinylated compound were then assessed using western blotting.
Target sequence in this assay (O94921 whole entry, the tested form may be a part): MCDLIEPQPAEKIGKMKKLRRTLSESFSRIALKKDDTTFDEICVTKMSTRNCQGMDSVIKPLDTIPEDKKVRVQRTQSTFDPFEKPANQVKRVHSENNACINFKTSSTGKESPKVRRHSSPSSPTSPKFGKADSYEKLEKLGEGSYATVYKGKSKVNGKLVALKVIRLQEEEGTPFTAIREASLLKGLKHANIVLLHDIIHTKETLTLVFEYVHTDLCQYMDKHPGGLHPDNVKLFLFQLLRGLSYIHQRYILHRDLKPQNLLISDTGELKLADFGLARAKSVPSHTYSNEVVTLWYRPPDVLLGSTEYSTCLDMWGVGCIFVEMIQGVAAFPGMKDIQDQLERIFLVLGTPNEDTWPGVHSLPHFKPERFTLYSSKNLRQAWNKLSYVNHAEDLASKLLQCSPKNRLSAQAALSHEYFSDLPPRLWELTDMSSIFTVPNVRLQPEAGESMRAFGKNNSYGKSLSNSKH

Cdk14/CycY = Cdk14/CycY (Homo sapiens (Human), UniProt O94921); test: Lanthascreen Eu kinase binding assay for Cdk14/CycY with 30 minute pre-incubation; conditions: 30 minute pre-incubation of kinase with compound; read-out: IC50 CDK14 binding by Lanthascreen
Sequence of Cdk14/CycY (O94921 whole entry): as the sequence (O94921 whole entry, the tested form may be a part) above
Sequence of Cdk14/CycY (Q8ND76 whole entry partner): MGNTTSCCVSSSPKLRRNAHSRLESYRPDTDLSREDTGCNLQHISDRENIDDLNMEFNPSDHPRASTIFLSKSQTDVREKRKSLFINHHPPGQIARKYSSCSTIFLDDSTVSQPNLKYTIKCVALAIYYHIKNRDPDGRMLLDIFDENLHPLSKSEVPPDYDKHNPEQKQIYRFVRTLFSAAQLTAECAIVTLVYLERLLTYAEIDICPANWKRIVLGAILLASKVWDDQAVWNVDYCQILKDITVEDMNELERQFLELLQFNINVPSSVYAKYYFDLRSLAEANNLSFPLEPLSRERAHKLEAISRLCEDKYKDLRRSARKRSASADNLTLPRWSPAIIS
Procedure: Lanthascreen Eu kinase binding assays were conducted for Cdk14/CycY largely as performed in the commercial assay service by Life Technologies, but included a 30 minute pre-incubation step of the kinase with candidate compounds to facilitate covalent bond formation.

HCT116 cells = test: Antiproliferation assay, Cell Titer Glo, 72 hours; type: cell-based; conditions: Homo sapiens, HCT-116, 72 h
Procedure, shortened: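 Luminescent CellTiter-Glo read-out after 72 h compound exposure (four-fold dilutions, 37 °C, 5% CO2) of HCT116 cells plated at 750 cells/well in McCoy's 5A + 10% FBS. Biological quadruplicates; IC50 from non-linear curve fitting.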

CDK2/CycA = CDK2/CycA (Homo sapiens (Human), UniProt P24941); test: Z'LYTE kinase assay for CDK2/CycA at Km ATP; type: biochemical; conditions: read-out: IC50 CDK2 Z′LYTE kinase assay
CDK16/CycY = CDK16/CycY (Homo sapiens (Human), UniProt Q00536); test: Lanthascreen Eu kinase binding assay for CDK16/CycY; conditions: read-out: IC50 CDK16 Lanthascreen binding
Sequence of CDK16/CycY (Q00536 whole entry): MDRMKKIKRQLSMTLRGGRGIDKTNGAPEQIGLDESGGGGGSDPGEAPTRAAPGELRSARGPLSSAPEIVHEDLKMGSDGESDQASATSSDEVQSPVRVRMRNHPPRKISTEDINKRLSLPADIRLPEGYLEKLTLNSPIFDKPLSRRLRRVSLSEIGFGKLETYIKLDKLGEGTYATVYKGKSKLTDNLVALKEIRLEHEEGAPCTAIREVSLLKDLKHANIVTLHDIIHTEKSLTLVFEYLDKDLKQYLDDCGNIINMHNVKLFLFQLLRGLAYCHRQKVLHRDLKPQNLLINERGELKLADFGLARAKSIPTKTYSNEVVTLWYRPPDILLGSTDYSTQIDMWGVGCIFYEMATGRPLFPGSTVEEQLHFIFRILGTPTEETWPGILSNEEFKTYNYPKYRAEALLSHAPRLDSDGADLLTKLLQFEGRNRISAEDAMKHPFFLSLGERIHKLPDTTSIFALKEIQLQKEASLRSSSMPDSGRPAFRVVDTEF
Sequence of CDK16/CycY (Q8ND76 whole entry partner): as the sequence (Q8ND76 whole entry partner) above
Procedure: Lanthascreen Eu kinase binding assays were conducted for CDK16/CycY at Life Technologies.

Cdk14 [2] = target: T1, Cdk14; test: Cdk14 33P kinase assay (Reaction Biology Corp.); type: biochemical
Target sequence in this assay (O94921 whole entry, looked up, the tested form may be a part): as the sequence (O94921 whole entry, the tested form may be a part) above
Target sequence in this assay (Q8ND76 whole entry partner, looked up, the tested form may be a part): as the sequence (Q8ND76 whole entry partner) above

[3] = 4 hours treatment, some cells print Y or N instead of a concentration

SMILES	Cellular Potency by Pulldown (Cdk14 [1]; [3])	IC50 (Cdk14/CycY)	IC50 (HCT116 cells)	IC50 (CDK2/CycA)	IC50 (CDK16/CycY)	IC50 (Cdk14 [2])	Cellular Potency by Pulldown (Cdk14 [1]; cell prints LOW (>1 μM))	Cellular Potency by Pulldown (Cdk14 [1]; cell prints LOW (>1 uM))
C=CC(=O)Nc1cccc(S(=O)(=O)N2CCC(NC(=O)c3n[nH]cc3NC(=O)c3c(Cl)ccc(OC)c3Cl)CC2)c1 [FMF-04-184-1, N-(1-((3-acrylamidophenyl)sulfonyl)piperidin-4-yl)-4-(2,6-dichloro-3-methoxybenzamido)-1H-pyrazole-3-carboxamide]	100 nM	0.4 nM	< 1 nM					
COc1ccccc1CC(=O)Nc1c[nH]nc1C(=O)NC1CCN(S(=O)(=O)c2cccc(NC(=O)/C=C/CN(C)C)c2)CC1 [FMF-05-117-1, (E)-N-(1-((3-(4-(dimethylamino)but-2-enamido)phenyl)sulfonyl)piperidin-4-yl)-4-(2-(2-methoxyphenyl)acetamido)-1H-pyrazole-3-carboxamide]		14 nM	395 nM	5.71 nM	17 nM			
COc1cccc(OC)c1C(=O)Nc1c[nH]nc1C(=O)NC1CCN(S(=O)(=O)c2cccc(NC(=O)/C=C/CN(C)C)c2)CC1 [FMF-05-119-1, (E)-4-(2,6-dimethoxybenzamido)-N-(1-((3-(4-(dimethylamino)but-2-enamido)phenyl)sulfonyl)piperidin-4-yl)-1H-pyrazole-3-carboxamide]		49.5 nM	4110 nM	24.6 nM	11.3 nM			
CN(C)C/C=C/C(=O)Nc1cccc(S(=O)(=O)N2CCC(N(C)C(=O)c3n[nH]cc3NC(=O)c3c(Cl)cccc3Cl)CC2)c1 [FMF-04-086-2, (E)-4-(2,6-dichlorobenzamido)-N-(1-((3-(4-(dimethylamino)but-2-enamido)phenyl)sulfonyl)piperidin-4-yl)-N-methyl-1H-pyrazole-3-carboxamide]		> 1000 nM	> 10000 nM	664 nM	894 nM			
CN(C)C/C=C/C(=O)Nc1cccc(S(=O)(=O)N2CCC(NC(=O)c3n[nH]cc3NC(=O)c3ccccc3)CC2)c1 [FMF-05-027-2, (E)-4-benzamido-N-(1-((3-(4-(dimethylamino)but-2-enamido)phenyl)sulfonyl)piperidin-4-yl)-1H-pyrazole-3-carboxamide]		3 nM	440 nM	2.8 nM	9.8 nM			
C=CC(=O)Nc1cccc(S(=O)(=O)N2CCC(NC(=O)c3n[nH]cc3NC(=O)c3c(F)cccc3F)CC2)c1 [FMF-04-096-1, N-(1-((3-acrylamidophenyl)sulfonyl)piperidin-4-yl)-4-(2,6-difluorobenzamido)-1H-pyrazole-3-carboxamide]		> 1000 nM	114 nM			284 nM		
CN(C)C/C=C/C(=O)Nc1cccc(CN2CCC(NC(=O)c3n[nH]cc3NC(=O)c3c(F)cc(F)cc3F)CC2)c1 [FMF-04-200-2, (E)-N-(1-(3-(4-(dimethylamino)but-2-enamido)benzyl)piperidin-4-yl)-4-(2,4,6-trifluorobenzamido)-1H-pyrazole-3-carboxamide]		17 nM	293 nM	508 nM	110 nM			
COc1cccc(F)c1C(=O)Nc1c[nH]nc1C(=O)NC1CCN(Cc2cccc(NC(=O)/C=C/CN(C)C)c2)CC1 [IHK-01-013-2, (E)-N-(1-(3-(4-(dimethylamino)but-2-enamido)benzyl)piperidin-4-yl)-4-(2-fluoro-6-methoxybenzamido)-1H-pyrazole-3-carboxamide]		4.2 nM	77 nM	53 nM	7.4 nM			
COc1ccc(Cl)c(C(=O)Nc2c[nH]nc2C(=O)NC2CCN(S(=O)(=O)c3cccc(NC(=O)/C=C/CN(C)C)c3)CC2)c1Cl [FMF-04-184-2, (E)-4-(2,6-dichloro-3-methoxybenzamido)-N-(1-((3-(4-(dimethylamino)but-2-enamido)phenyl)sulfonyl)piperidin-4-yl)-1H-pyrazole-3-carboxamide]	100 nM	6.4 nM	23 nM	3.5 nM	1.8 nM			
CN(C)C/C=C/C(=O)Nc1ccc(CNC(=O)c2n[nH]cc2NC(=O)c2c(Cl)cccc2Cl)cc1 [FMF-05-064-2, (E)-4-(2,6-dichlorobenzamido)-N-(4-(4-(dimethylamino)but-2-enamido)benzyl)-1H-pyrazole-3-carboxamide]		108 nM	4700 nM				LOW (>1 μM)	
CN(C)C/C=C/C(=O)Nc1cccc(S(=O)(=O)N2CCC(NC(=O)c3nscc3NC(=O)c3c(Cl)cccc3Cl)CC2)c1 [FMF-04-089-2, (E)-4-(2,6-dichlorobenzamido)-N-(1-((3-(4-(dimethylamino)but-2-enamido)phenyl)sulfonyl)piperidin-4-yl)isothiazole-3-carboxamide]		> 1000 nM	3040 nM	439 nM	404 nM			
CN(C)C/C=C/C(=O)Nc1cccc(S(=O)(=O)N2CCC(NC(=O)c3c(NC(=O)c4c(Cl)cccc4Cl)cnn3C)CC2)c1 [FMF-04-121-1, (E)-4-(2,6-dichlorobenzamido)-N-(1-((3-(4-(dimethylamino)but-2-enamido)phenyl)sulfonyl)piperidin-4-yl)-1-methyl-1H-pyrazole-5-carboxamide]		486 nM	2860 nM	> 10000 nM	6700 nM			
C=CC(=O)Nc1cccc(CNC(=O)c2n[nH]cc2NC(=O)c2c(Cl)cccc2Cl)c1 [FMF-05-067-1, N-(3-acrylamidobenzyl)-4-(2,6-dichlorobenzamido)-1H-pyrazole-3-carboxamide]			8500 nM			> 1000 nM		
CN(C)C/C=C/C(=O)Nc1cccc(N2CCC(NC(=O)c3n[nH]cc3NC(=O)c3c(Cl)cccc3Cl)CC2)c1 [FMF-05-085-2, (E)-4-(2,6-dichlorobenzamido)-N-(1-(3-(4-(dimethylamino)but-2-enamido)phenyl)piperidin-4-yl)-1H-pyrazole-3-carboxamide]		27 nM	427 nM	20 nM	74.4 nM			
CN(C)C/C=C/C(=O)Nc1cccc(S(=O)(=O)N2CCC(NC(=O)c3n[nH]c(-c4ccccc4)c3NC(=O)c3c(Cl)cccc3Cl)CC2)c1 [FMF-04-197-1, (E)-4-(2,6-dichlorobenzamido)-N-(1-((3-(4-(dimethylamino)but-2-enamido)phenyl)sulfonyl)piperidin-4-yl)-5-phenyl-1H-pyrazole-3-carboxamide]		28 nM	> 10000 nM	5900 nM	5900 nM			
C=CC(=O)Nc1cccc(C(=O)Nc2ccc(NC(=O)c3n[nH]cc3NC(=O)c3c(Cl)cccc3Cl)cc2)c1 [FMF-03-205-1, N-(4-(3-acrylamidobenzamido)phenyl)-4-(2,6-dichlorobenzamido)-1H-pyrazole-3-carboxamide]	500 nM	1010 nM	6 nM					
C=CC(=O)Nc1ccc(CNC(=O)c2n[nH]cc2NC(=O)c2c(Cl)cccc2Cl)cc1 [FMF-05-064-1, N-(4-acrylamidobenzyl)-4-(2,6-dichlorobenzamido)-1H-pyrazole-3-carboxamide]		1700 nM	117 nM	15 nM	478 nM			
C=CC(=O)Nc1cccc(S(=O)(=O)N2CCC(NC(=O)c3n[nH]cc3NC(=O)c3c(F)cccc3OC)CC2)c1 [FMF-04-097-1, N-(1-((3-acrylamidophenyl)sulfonyl)piperidin-4-yl)-4-(2-fluoro-6-methoxybenzamido)-1H-pyrazole-3-carboxamide]		1.6 nM	9 nM			88 nM		
Cc1[nH]nc(C(=O)NC2CCN(S(=O)(=O)c3cccc(NC(=O)/C=C/CN(C)C)c3)CC2)c1NC(=O)c1c(Cl)cccc1Cl [FMF-04-181-2, (E)-4-(2,6-dichlorobenzamido)-N-(1-((3-(4-(dimethylamino)but-2-enamido)phenyl)sulfonyl)piperidin-4-yl)-5-methyl-1H-pyrazole-3-carboxamide]		> 1000 nM	> 10000 nM	125 nM	124 nM			
CN(C)C/C=C/C(=O)Nc1ccc(N2CCC(NC(=O)c3n[nH]cc3NC(=O)c3c(Cl)cccc3Cl)CC2)cc1 [FMF-05-073-2, (E)-4-(2,6-dichlorobenzamido)-N-(1-(4-(4-(dimethylamino)but-2-enamido)phenyl)piperidin-4-yl)-1H-pyrazole-3-carboxamide]		45 nM	541 nM	17 nM	27.7 nM			
C=CC(=O)Nc1cccc(S(=O)(=O)N2CCC(NC(=O)c3n[nH]cc3NC(=O)c3c(OC)cc(OC)cc3OC)CC2)c1 [FMF-05-028-1, N-(1-((3-acrylamidophenyl)sulfonyl)piperidin-4-yl)-4-(2,4,6-trimethoxybenzamido)-1H-pyrazole-3-carboxamide]		48 nM	> 10000 nM					LOW (>1 uM)
